From PubChem BioAssay (NCI)
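All cell lines were grown in 96-well plates and treated with compound for 48 hours. The concentration for 50% growth inhibition is given as GI50. TGI marks complete inhibition of growth.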

How the values were obtained:
Test in all cases: inhibition of tumour cell growth, NCI panel, 48 h
[1] = system: 786-0 renal
[2] = system: HL-60(TB) leukemia
[3] = system: ACHN renal
[4] = system: HOP-62 NSCLC
[5] = system: SF-539 CNS
[6] = system: SK-MEL-5 melanoma
[7] = system: TK-10 renal
[8] = system: MCF7 breast
[9] = system: NCI-H522 lung
[10] = system: SNB-19 CNS
[11] = system: SK-MEL-2 melanoma
[12] = system: LOX IMVI melanoma
[13] = system: MALME-3M melanoma
[14] = system: CCRF-CEM leukemia
[15] = system: M14 melanoma
[16] = system: NCI-H460 lung
[17] = system: SW-620 colon
[18] = system: OVCAR-8 ovarian
[19] = system: MDA-MB-231 breast
[20] = system: HS 578T breast
[21] = system: NCI-H23 lung
[22] = system: UACC-257 melanoma
[23] = system: SK-MEL-28 melanoma
[24] = system: A498 renal
[25] = system: BT-549 breast
[26] = system: U251 CNS
[27] = system: IGROV1 ovarian
[28] = system: NCI/ADR-RES ovarian
[29] = system: SK-OV-3 ovarian
[30] = system: MOLT-4 leukemia
[31] = system: A549 NSCLC
[32] = system: OVCAR-4 ovarian
[33] = system: KM12 colon
[34] = system: RXF 393 renal
[35] = system: COLO 205 colon
[36] = system: HCT-116 colon
[37] = system: RPMI-8226 leukemia
[38] = system: OVCAR-3 ovarian
[39] = system: HT29 colon
[40] = system: OVCAR-5 ovarian
[41] = system: SF-268 CNS
[42] = system: NCI-H226 lung
[43] = system: MDA-MB-435
[44] = system: UACC-62 melanoma
[45] = system: HOP-92 NSCLC
[46] = system: T-47D breast
[47] = system: K-562 leukemia
[48] = system: HCC-2998 colon
[49] = system: CAKI-1 renal
[50] = system: UO-31 renal
[51] = system: SN12C renal
[52] = system: DU-145 prostate
[53] = system: PC-3 prostate
[54] = system: SR leukemia

Cc1ccc(S(=O)c2ccc([N+](=O)[O-])c3nonc23)cc1 (stereo not drawn)
GI50 [1]: 13.2 µM
TGI [1]: 26.2 µM
GI50 [2]: 3.09 µM
TGI [2]: 8.93 µM
GI50 [3]: 1.92 µM
TGI [3]: 3.75 µM
GI50 [4]: 16.2 µM
TGI [4]: 30.8 µM
GI50 [5]: 19 µM
TGI [5]: 39.3 µM
GI50 [6]: 14.8 µM
TGI [6]: 28.5 µM
GI50 [7]: 2.53 µM
TGI [7]: 5.51 µM
GI50 [8]: 5.53 µM
TGI [8]: 21.9 µM
GI50 [9]: 1.57 µM
TGI [9]: 2.98 µM
GI50 [10]: 14.7 µM
TGI [10]: 33.9 µM
GI50 [11]: 17.8 µM
TGI [11]: 35.8 µM
GI50 [12]: 5.88 µM
TGI [12]: 19.2 µM
GI50 [13]: 2.23 µM
TGI [13]: 5.12 µM
GI50 [14]: 2.3 µM
TGI [14]: 6.27 µM
GI50 [15]: 11 µM
TGI [15]: 23.7 µM
GI50 [16]: 17.7 µM
TGI [16]: 38.6 µM
GI50 [17]: 2.18 µM
TGI [17]: 5 µM
GI50 [18]: 6.89 µM
TGI [18]: 22.4 µM
GI50 [19]: 10.1 µM
TGI [19]: 22.6 µM
GI50 [20]: 21.1 µM
TGI [20]: 60.2 µM
GI50 [21]: 14.1 µM
TGI [21]: 30.4 µM
GI50 [22]: 11.6 µM
TGI [22]: 23.9 µM
GI50 [23]: 9.15 µM
TGI [23]: 23.3 µM
GI50 [24]: 11.8 µM
TGI [24]: 26.4 µM
GI50 [25]: 10.1 µM
TGI [25]: 21.7 µM
GI50 [26]: 16 µM
TGI [26]: 35 µM
GI50 [27]: 12.2 µM
TGI [27]: 27.4 µM
GI50 [28]: 15.8 µM
TGI [28]: 48.9 µM
GI50 [29]: 18.8 µM
TGI [29]: 34.3 µM
GI50 [30]: 2.64 µM
TGI [30]: 6.96 µM
GI50 [31]: 18.7 µM
TGI [31]: 39.5 µM
GI50 [32]: 3.08 µM
TGI [32]: 9.24 µM
GI50 [33]: 15.8 µM
TGI [33]: 31.1 µM
GI50 [34]: 2.33 µM
TGI [34]: 5.53 µM
GI50 [35]: 1.9 µM
TGI [35]: 3.43 µM
GI50 [36]: 1.82 µM
TGI [36]: 3.39 µM
GI50 [37]: 3.62 µM
TGI [37]: 25.5 µM
GI50 [38]: 2.23 µM
TGI [38]: 4.78 µM
GI50 [39]: 4.08 µM
TGI [39]: 22 µM
GI50 [40]: 9.5 µM
TGI [40]: 26.2 µM
GI50 [41]: 15 µM
TGI [41]: 29.9 µM
GI50 [42]: 15.7 µM
TGI [42]: 43.2 µM
GI50 [43]: 10.2 µM
TGI [43]: 26 µM
GI50 [44]: 7.25 µM
TGI [44]: 20.2 µM
GI50 [45]: 4.09 µM
TGI [45]: 17.2 µM
GI50 [46]: 2.04 µM
TGI [46]: 4.59 µM
GI50 [47]: 3.02 µM
TGI [47]: 9.18 µM
GI50 [48]: 15.6 µM
TGI [48]: 29.4 µM
GI50 [49]: 3.12 µM
TGI [49]: 11.3 µM
GI50 [50]: 2.4 µM
TGI [50]: 9.54 µM
GI50 [51]: 15 µM
TGI [51]: 31.3 µM
GI50 [52]: 7.87 µM
TGI [52]: 20.9 µM
GI50 [53]: 12.8 µM
TGI [53]: 27.1 µM
GI50 [54]: 3.39 µM
TGI [54]: > 100 µM
